The numbers were not newly measured in US20230167505A1, “CIRCULATING TUMOR DNA AS A BIOMARKER FOR LEUKEMIA TREATMENT” (Cardiff Oncology, Inc., priority 2020, published 2023), which cites them from elsewhere.

For the data set the following is noted: in vivo; cited from earlier work.

As to `CC[C@@H]1C(=O)N(C)c2cnc(Nc3ccc(C(=O)N[C@H]4CC[C@H](N5CCN(CC6CC6)CC5)CC4)cc3OC)nc2N1C(C)C` [volasertib], the half-life is ~120 h.
